Measured values taken from patent US20090270255A1 (priority 2005, published 2009).
Like-named read-outs stand apart in the source and are kept apart here.

Test system: Pyricularia oryzae
Format: cell-based
[1] = single active compound, conc. 1 ppm, MTP measured at 405 nm on day 7 after inoculation, 18° C.

Fc1ccc(C2(Cn3cncn3)OC2c2ccccc2Cl)cc1 (stereo not shown) [Epoxiconazole, epoxiconazole]
Observed effect (%) [1]: 0%

CC1(C)CC/C(=C\c2ccc(Cl)cc2)C1(O)Cn1cncn1 (stereo not shown) [Triticonazole, triticonazole]
Observed effect (%) [1]: 3% | Observed effect (%) (single active compound, conc. 4 ppm, MTP measured at 405 nm on day 7 after inoculation, 18° C.): 13%

bromuconazole
Observed effect (%): 0%
